From US11369127B2, “Sweetener and flavor compositions, methods of making and methods of use thereof” (EPC Natural Products Co., Ltd., priority 2018, dated 2022)
“Also recorded” adds a separate entry of the source.

What was measured:
[1] = Kinetics of reaction in dependence of pH-conditions (degradation of Phe and Reb-A, Gluc, Xyl, Suc by HPLC/MS)
Procedure: Quantitative evaluation was performed using external standardization.
Kinetics of Reaction in Dependence of pH-Conditions

[2] = Stevia-derived MRPs with NHDC and Thaumatin, also in Redbull sugarfree (Ex. 261); set-up: species or system human; conditions: 150 μl sample in 100 ml Redbull sugar free
Procedure: 150 μl of the each sample was added to 100 ml Redbull sugar free and mixed. The taste profiles of the samples were compared. As a control, a RedBull sugar free sample without the addition of Steviaroma was used.
Before tasting the tasters discussed the upcoming series of samples and tasted samples with predetermined attributes with varying intensities to find a commonality in description. Four trained tasters blind taste tested independently all samples of a series. They were allowed to re-taste and made notes for the sensory attributes perceived including the relative intensity.
In the last step the attributes noted were discussed openly to find an acceptable description. In case that more than 1 taster disagreed with the description, the tasting was repeated.

[3] = Sensory evaluation of GSGs and SGs, Thaumatin, NHDC and combinations (Ex. 255); set-up: species or system human; conditions: in water; 4.5 ppm Thaumatin and/or 50 ppm GSGs and SGs, NHDC 1-5 ppm
Procedure: 4.5 ppm Thaumatin (equivalent to 10 ppm EPCalin) was dissolved in water. Increasing amounts of NHDC (1-5 ppm) were added to the solution and the sensory properties were evaluated.
50 ppm (GSGs and SGs) were dissolved in water. Increasing amounts of NHDC (1-5 ppm) were added to the solution and the sensory properties were evaluated.
50 ppm (GSGs and SGs) and 4.5 ppm Thaumatin (equivalent to 10 ppm EPCalin) were dissolved in water. Increasing amounts of NHDC (1-5 ppm) were added to the solution and the sensory properties were evaluated.
Sweetness intensity was rated on 5-point scale

[4] = DPPH radical-scavenging activity (Ex. 65); assay type: biochemical; conditions: iron-III reduction and DPPH radical scavenging (FIG. 49, 50); 100° C., 0-5 hours
Procedure: 1 mg 1,1-Diphenyl-2-picrylhydrazyl radical (DPPH)/ml ethanol, dilution to assay concentration were prepared in ethanol (40 μg/mL); Calibration samples were prepared with Ascorbic acid in a concentration of 0-10 μg/mL; as a negative control sample, water was used.
Samples in aqueous solution were used as such or diluted with water.
A 0.1 ml sample (or calibration standard) was mixed with 3.9 ml solution of DPPH (100 μMolar) and reacted while protected from light at room temperature for 30 min. Absorbance was determined at 517 nm against ethanol.
10 mM of amino acid and/or 10 mM sugar were dissolved in 10 ml 0.1 mM KH2PO4-buffer, pH=7.8.
The samples were kept at 100° C. in sealed glass vials (Pyrex 15 ml with screw caps) for 0 (before reaction), 2.5 or 5.0 hours. Thereafter the samples were transferred to an ice water bath and cooled down to room temperature. These samples were diluted 1:10 and used for the test assay for anti-oxidant potential.

Q: With O=C(O)[C@H](Cc1ccccc1)NCC(=O)[C@@H](O)[C@H](O)[C@H](O)CO [MRI (Phe-Glu)] as the molecule, how does the “% formation from degraded Phe” value ([1]; pH = 5.5) read?
A: Its value is under 0.10%.

Q: What about the “% formation from degraded Phe” value ([1]; pH = 7.0) of the same molecule?
A: The value was 0.54%.

Q: What about the “% formation from degraded Phe” value ([1]; pH = 8.5) of the same molecule?
A: The value was 0.84%.

Q: What does the source list for COc1ccc(CCC(=O)c2c(O)cc(O[C@@H]3O[C@H](CO)[C@@H](O)[C@H](O)[C@H]3O[C@@H]3O[C@@H](C)[C@H](O)[C@@H](O)[C@H]3O)cc2O)cc1O [NHDC, Neohesperidin dihydrochalcone]?
A: taste profile in sugarfree beverage [2]: improved the mouth-feel and harmony of taste impression yielding a substantially improved taste profile; sensory properties of combinations with NHDC [3]: long lasting lingering; also recorded: boosts the lingering

Q: For C=C1C[C@@]23CC[C@H]4[C@@](C)(CCC[C@@]4(C)C(=O)O[C@@H]4O[C@H](CO)[C@@H](O)[C@H](O)[C@H]4O)[C@@H]2CC[C@]1(O[C@@H]1O[C@H](CO)[C@@H](O)[C@H](O[C@@H]2O[C@H](CO)[C@@H](O)[C@H](O)[C@H]2O)[C@H]1O[C@@H]1O[C@H](CO)[C@@H](O)[C@H](O)[C@H]1O)C3 [Reb-A, Rebaudioside A], which anti-oxidant properties [4] is on record?
A: The anti-oxidant properties was “substantial anti-oxidant properties”.
